Measured values taken from patent US5677274A (The Government of the United States as represented by the …, priority 1993, dated 1997).

System: CHO cells
Format: cell-based, Chinese Hamster

`CC[C@@]1([C@@H]2O[C@@H]([C@H]3O[C@@](O)(CO)[C@H](C)C[C@@H]3C)C[C@@H]2C)CC[C@H]([C@]2(C)CC[C@]3(C[C@H](O)[C@@H](C)[C@@H]([C@@H](C)[C@@H](OC)[C@H](C)C(=O)O)O3)O2)O1` [monensin] was tested, and the “decrease in potency of FP33” value was greater than 100 fold and the “protection against the other three fusion proteins” value was “exceeded 20 fold”.
